{"source": "paper PMC5107132", "about": "(European journal of pharmacology, 2016)", "key": {"[1]": {"biological_target": "α2β3γ2 GABAA receptors (Rattus norvegicus, UniProt P18508+P23576)", "assay": "Two-electrode voltage clamp in Xenopus oocytes, α2β3γ2", "assay_type": "cell-based"}, "[2]": {"test_system": "Wistar rats", "assay": "Amphetamine induced locomotor activity", "assay_type": "in vivo, rat", "conditions": "1, 2.5 and 10 mg/kg i.p."}, "[3]": {"test_system": "Wistar rats", "assay": "Elevated plus maze", "assay_type": "in vivo, rat", "conditions": "1 mg/kg to 10 mg/kg i.p., 5 min"}, "[4]": {"assay": "Plasma protein and brain tissue binding", "assay_type": "in vitro ADME, rat", "conditions": "rat"}, "[5]": {"biological_target": "α5β3γ2S GABAA receptors (Rattus norvegicus, UniProt P18508+P19969)", "assay": "3H-flunitrazepam competition binding, α5β3γ2S"}, "[6]": {"test_system": "Wistar rats", "assay": "Intravenous pentylenetetrazole infusion test", "assay_type": "in vivo, rat"}, "[7]": {"biological_target": "α3β3γ2 GABAA receptors (Rattus norvegicus, UniProt P18508+P20236)", "assay": "Two-electrode voltage clamp in Xenopus oocytes, α3β3γ2", "assay_type": "cell-based"}, "[8]": {"biological_target": "α2β3γ2S GABAA receptors (Rattus norvegicus, UniProt P18508+P23576)", "assay": "3H-flunitrazepam competition binding, α2β3γ2S"}, "[9]": {"test_system": "non-α5GABAARs", "assay": "Two-electrode voltage clamp in Xenopus oocytes, non-α5 receptors", "assay_type": "cell-based, rat", "conditions": "100 nM effective concentration"}, "[10]": {"test_system": "Wistar rats", "assay": "Rotarod test", "assay_type": "in vivo, rat"}, "[11]": {"assay": "In vitro hydrolytic stability study in rat plasma", "assay_type": "in vitro ADME", "conditions": "for Total plasma concentration (in vitro metabolic stability): rat plasma 37 °C"}, "[12]": {"test_system": "50 other receptor and enzyme assays", "assay": "NIMH PDSP screen, 50 other receptor and enzyme assays"}, "[13]": {"biological_target": "α5β3γ2 GABAA receptors (Rattus norvegicus, UniProt P18508+P19969)", "assay": "Two-electrode voltage clamp in Xenopus oocytes, α5β3γ2", "assay_type": "cell-based", "conditions": "concentrations approaching 100 nM; GABA EC3-5"}, "[14]": {"test_system": "Wistar rats", "assay": "Grip strength", "assay_type": "in vivo, rat", "conditions": "for Grip strength, peak force of experimenter's pull necessary to overcome the animal's grip: 20 min before testing"}, "[15]": {"assay": "Pharmacokinetic study, plasma and brain concentrations after i.p. injection"}, "[16]": {"biological_target": "α3β3γ2S GABAA receptors (Rattus norvegicus, UniProt P18508+P20236)", "assay": "3H-flunitrazepam competition binding, α3β3γ2S"}, "[17]": {"biological_target": "α1β3γ2S GABAA receptors (Rattus norvegicus, UniProt P18508+P62813)", "assay": "3H-flunitrazepam competition binding, α1β3γ2S"}, "[18]": {"biological_target": "α1β3γ2 GABAA receptors (Rattus norvegicus, UniProt P18508+P62813)", "assay": "Two-electrode voltage clamp in Xenopus oocytes, α1β3γ2", "assay_type": "cell-based", "conditions": "whole range of in vivo free brain concentrations obtained"}, "[19]": {"conditions": "only at concentrations of about 100 nM and above"}, "[20]": {"conditions": "rat i.p., MP-III-022 2.5 mg/kg vs SH-053-2′F-R-CH3 10 mg/kg"}}, "note": "Marks after values point to notes of the source that are not given here."}
{"smiles": "C#Cc1ccc2c(c1)C(c1ccccc1F)=N[C@H](C)c1c(C(=O)NC)ncn1-2", "note": "[MP-III-022, (R)-8-Ethynyl-6-(2-fluorophenyl)-N,4-dimethyl-4H-benzo[f]imidazo[1,5-a][1,4]diazepine-3-carboxamide]", "values": [{"measurement": "Estimated potentiation at α2GABAARs", "setting": "[1]; after the 15 mg/kg dose", "value": 225, "unit": "%"}, {"measurement": "Estimated potentiation at α2GABAARs", "setting": "[1]; after the 20 mg/kg dose", "value": 280, "unit": "%"}, {"measurement": "Estimated potentiation at α2GABAARs", "setting": "[1]; after the dose of 10 mg/kg", "value": 138, "unit": "%"}, {"measurement": "Modulatory activity at α2-containing receptors", "setting": "[1]; [19]", "value": "weakly modulatory"}, {"measurement": "Locomotor activity during 20 min before amphetamine treatment", "setting": "[2]", "value": "did not show any effect of treatment"}, {"measurement": "Influence on amphetamine's effects (hyperlocomotion, 0.5 mg/kg amphetamine)", "setting": "[2]; 60 min", "value": "lack of influence"}, {"measurement": "Elevated plus maze, closed and total arm entries", "setting": "[3]", "value": "did not affect"}, {"measurement": "Elevated plus maze, percent of open arm entries", "setting": "[3]", "value": "did not affect"}, {"measurement": "Elevated plus maze, percent of open arm time", "setting": "[3]", "value": "did not affect"}, {"measurement": "Elevated plus maze, total distance traveled", "setting": "[3]", "value": "did not affect"}, {"measurement": "fraction unbound", "setting": "[4]; brain tissue", "value": 0.0661}, {"measurement": "fraction unbound", "setting": "[4]; plasma", "value": 0.135}, {"measurement": "Ki", "setting": "[5]", "value": "0.055 ± 0.017", "unit": "µM"}, {"measurement": "Selectivity in binding to α5GABAARs compared to α1-containing GABAA receptors", "setting": "[5]; ratio of Ki values", "value": 15, "unit": "fold"}, {"measurement": "Selectivity in binding to α5GABAARs compared to α2-containing GABAA receptors", "setting": "[5]; ratio of Ki values", "value": 6, "unit": "fold"}, {"measurement": "Selectivity in binding to α5GABAARs compared to α3-containing GABAA receptors", "setting": "[5]; ratio of Ki values", "value": 12, "unit": "fold"}, {"measurement": "PTZ test, threshold dose of PTZ required to elicit seizures", "setting": "[6]; 1 mg/kg i.p.", "value": "60.99 ± 6.11", "unit": "mg/kg PTZ"}, {"measurement": "PTZ test, threshold dose of PTZ required to elicit seizures", "setting": "[6]; 10 mg/kg i.p.", "value": "50.99 ± 3.72", "unit": "mg/kg PTZ"}, {"measurement": "PTZ test, effect of treatment (one-way ANOVA)", "setting": "[6]; 1 and 10 mg/kg i.p.", "value": "did not show a statistically significant effect"}, {"measurement": "Estimated potentiation at α3GABAARs", "setting": "[7]; after the 15 mg/kg dose", "value": 175, "unit": "%"}, {"measurement": "Estimated potentiation at α3GABAARs", "setting": "[7]; after the 20 mg/kg dose", "value": 200, "unit": "%"}, {"measurement": "Modulatory activity at α3-containing receptors", "setting": "[7]; [19]", "value": "weakly modulatory"}, {"measurement": "Ki", "setting": "[8]", "value": "0.36 ± 0.056", "unit": "µM"}, {"measurement": "Estimated free concentration as % of Ki value for α2GABAARs", "setting": "[8]; after the dose of 10 mg/kg", "value": 19, "unit": "%"}, {"measurement": "Effects (potentiation) on non-α5GABAARs", "setting": "[9]", "value": "≤ 150", "unit": "%"}, {"measurement": "Rotarod, time remaining on the rod revolving at 15 rpm", "setting": "[10]; 10 mg/kg i.p.", "value": 180, "unit": "s"}, {"measurement": "Rotarod, time remaining on the rod revolving at 15 rpm", "setting": "[10]; 15 mg/kg MP-III-022 in combination with 20 mg/kg XLi-093, i.p.", "value": "74.61 ± 34.03", "unit": "s"}, {"measurement": "Rotarod, time remaining on the rod revolving at 15 rpm", "setting": "[10]; 15 mg/kg i.p.", "value": "69.09 ± 25.58", "unit": "s"}, {"measurement": "Rotarod, time remaining on the rod revolving at 15 rpm", "setting": "[10]; 20 mg/kg i.p.", "value": "6.67 ± 4.81", "unit": "s"}, {"measurement": "Total plasma concentration (in vitro metabolic stability)", "setting": "[11]; 0 min", "value": 0.5556, "unit": "µM"}, {"measurement": "Total plasma concentration (in vitro metabolic stability)", "setting": "[11]; 30 min", "value": "0.5402 ± 0.0146", "unit": "µM"}, {"measurement": "Total plasma concentration (in vitro metabolic stability)", "setting": "[11]; 60 min", "value": "0.5403 ± 0.0193", "unit": "µM"}, {"measurement": "Total plasma concentration (in vitro metabolic stability)", "setting": "[11]; 120 min", "value": "0.5472 ± 0.0007", "unit": "µM"}, {"measurement": "Total plasma concentration (in vitro metabolic stability)", "setting": "[11]; 240 min", "value": "0.5374 ± 0.0063", "unit": "µM"}, {"measurement": "In vitro metabolic stability during incubation in rat plasma", "setting": "[11]; rat, plasma", "value": "excellent in vitro metabolic stability"}, {"measurement": "remaining at 0 h, 0.2 μg/ml", "setting": "[11]; rat, plasma", "value": 100, "unit": "%"}, {"measurement": "remaining at 0.5 h, 0.2 μg/ml", "setting": "[11]; rat, plasma", "value": 97.2, "unit": "%"}, {"measurement": "remaining at 1 h, 0.2 μg/ml", "setting": "[11]; rat, plasma", "value": 97.2, "unit": "%"}, {"measurement": "remaining at 2 h, 0.2 μg/ml", "setting": "[11]; rat, plasma", "value": 98.5, "unit": "%"}, {"measurement": "remaining at 4 h, 0.2 μg/ml", "setting": "[11]; rat, plasma", "value": 96.7, "unit": "%"}, {"measurement": "Activity in 50 other receptor and enzyme assays", "setting": "[12]", "value": "negligible activity"}, {"measurement": "Potentiation at α5β3γ2", "setting": "[13]", "value": "above 300%"}, {"measurement": "Grip strength, peak force of experimenter's pull necessary to overcome the animal's grip", "setting": "[14]; 1 mg/kg i.p.", "value": "2.57 ± 0.08", "unit": "kg/kg"}, {"measurement": "Grip strength, peak force of experimenter's pull necessary to overcome the animal's grip", "setting": "[14]; 2.5 mg/kg i.p.", "value": "2.41 ± 0.28", "unit": "kg/kg"}, {"measurement": "Grip strength, peak force of experimenter's pull necessary to overcome the animal's grip", "setting": "[14]; 10 mg/kg i.p.", "value": "1.94 ± 0.22^b,d kg/kg"}, {"measurement": "Grip strength, peak force of experimenter's pull necessary to overcome the animal's grip", "setting": "[14]; 15 mg/kg i.p.", "value": "1.86 ± 0.16^a kg/kg"}, {"measurement": "Grip strength, peak force of experimenter's pull necessary to overcome the animal's grip", "setting": "[14]; 20 mg/kg i.p.", "value": "1.78 ± 0.16^c,d kg/kg"}, {"measurement": "Dose at which the first muscle relaxant effect was observed", "setting": "[14]; i.p., grip strength", "value": 10, "unit": "mg/kg"}, {"measurement": "Brain AUC (0 to 180 min) relative to SH-053-2′F-R-CH3", "setting": "[15]; [20]", "value": 1.75, "unit": "fold"}, {"measurement": "Plasma AUC (0 to 180 min) relative to SH-053-2′F-R-CH3", "setting": "[15]; [20]", "value": 2, "unit": "fold"}, {"measurement": "Brain free (estimated) concentration", "setting": "[15]; rat, 1 mg/kg i.p., 20 min", "value": "6.38 ± 0.80", "unit": "nmol/kg"}, {"measurement": "Brain free (estimated) concentration", "setting": "[15]; rat, 2.5 mg/kg i.p., 20 min", "value": "10.34 ± 3.33", "unit": "nmol/kg"}, {"measurement": "Brain total concentration", "setting": "[15]; rat, 2.5 mg/kg i.p., 20 min", "value": "156.46 ± 50.33", "unit": "nmol/kg"}, {"measurement": "Brain free (estimated) concentration", "setting": "[15]; rat, 10 mg/kg i.p., 20 min", "value": "68.12 ± 18.38", "unit": "nmol/kg"}, {"measurement": "Brain total concentration", "setting": "[15]; rat, 10 mg/kg i.p., 20 min", "value": "1030.52 ± 278.03", "unit": "nmol/kg"}, {"measurement": "Brain free (estimated) concentration", "setting": "[15]; rat, 15 mg/kg i.p., 20 min", "value": "317.57 ± 186.52", "unit": "nmol/kg"}, {"measurement": "Brain total concentration", "setting": "[15]; rat, 15 mg/kg i.p., 20 min", "value": "4804.44 ± 2821.77", "unit": "nmol/kg"}, {"measurement": "Brain free (estimated) concentration", "setting": "[15]; rat, 20 mg/kg i.p., 20 min", "value": "559.57 ± 58.58", "unit": "nmol/kg"}, {"measurement": "Brain total concentration", "setting": "[15]; rat, 20 mg/kg i.p., 20 min", "value": "8465.45 ± 886.18", "unit": "nmol/kg"}, {"measurement": "concentration at 20 min", "setting": "[15]; rat, plasma, ip, 1 mg/kg, Plasma total concentration, 1 mg/kg i.p., 20 min", "value": "62.4 ± 4.97", "unit": "nM"}, {"measurement": "Ki", "setting": "[16]", "value": "0.66 ± 0.17", "unit": "µM"}, {"measurement": "Ki", "setting": "[17]", "value": "0.85 ± 0.11", "unit": "µM"}, {"measurement": "Modulatory actions at α1-containing GABAA receptors", "setting": "[18]", "value": "lacked modulatory actions"}]}
